Structures are written as SMILES. Where only a bound is given, the exact number is not on record here.

Sequence of human wild type-CFTR (P13569 whole entry): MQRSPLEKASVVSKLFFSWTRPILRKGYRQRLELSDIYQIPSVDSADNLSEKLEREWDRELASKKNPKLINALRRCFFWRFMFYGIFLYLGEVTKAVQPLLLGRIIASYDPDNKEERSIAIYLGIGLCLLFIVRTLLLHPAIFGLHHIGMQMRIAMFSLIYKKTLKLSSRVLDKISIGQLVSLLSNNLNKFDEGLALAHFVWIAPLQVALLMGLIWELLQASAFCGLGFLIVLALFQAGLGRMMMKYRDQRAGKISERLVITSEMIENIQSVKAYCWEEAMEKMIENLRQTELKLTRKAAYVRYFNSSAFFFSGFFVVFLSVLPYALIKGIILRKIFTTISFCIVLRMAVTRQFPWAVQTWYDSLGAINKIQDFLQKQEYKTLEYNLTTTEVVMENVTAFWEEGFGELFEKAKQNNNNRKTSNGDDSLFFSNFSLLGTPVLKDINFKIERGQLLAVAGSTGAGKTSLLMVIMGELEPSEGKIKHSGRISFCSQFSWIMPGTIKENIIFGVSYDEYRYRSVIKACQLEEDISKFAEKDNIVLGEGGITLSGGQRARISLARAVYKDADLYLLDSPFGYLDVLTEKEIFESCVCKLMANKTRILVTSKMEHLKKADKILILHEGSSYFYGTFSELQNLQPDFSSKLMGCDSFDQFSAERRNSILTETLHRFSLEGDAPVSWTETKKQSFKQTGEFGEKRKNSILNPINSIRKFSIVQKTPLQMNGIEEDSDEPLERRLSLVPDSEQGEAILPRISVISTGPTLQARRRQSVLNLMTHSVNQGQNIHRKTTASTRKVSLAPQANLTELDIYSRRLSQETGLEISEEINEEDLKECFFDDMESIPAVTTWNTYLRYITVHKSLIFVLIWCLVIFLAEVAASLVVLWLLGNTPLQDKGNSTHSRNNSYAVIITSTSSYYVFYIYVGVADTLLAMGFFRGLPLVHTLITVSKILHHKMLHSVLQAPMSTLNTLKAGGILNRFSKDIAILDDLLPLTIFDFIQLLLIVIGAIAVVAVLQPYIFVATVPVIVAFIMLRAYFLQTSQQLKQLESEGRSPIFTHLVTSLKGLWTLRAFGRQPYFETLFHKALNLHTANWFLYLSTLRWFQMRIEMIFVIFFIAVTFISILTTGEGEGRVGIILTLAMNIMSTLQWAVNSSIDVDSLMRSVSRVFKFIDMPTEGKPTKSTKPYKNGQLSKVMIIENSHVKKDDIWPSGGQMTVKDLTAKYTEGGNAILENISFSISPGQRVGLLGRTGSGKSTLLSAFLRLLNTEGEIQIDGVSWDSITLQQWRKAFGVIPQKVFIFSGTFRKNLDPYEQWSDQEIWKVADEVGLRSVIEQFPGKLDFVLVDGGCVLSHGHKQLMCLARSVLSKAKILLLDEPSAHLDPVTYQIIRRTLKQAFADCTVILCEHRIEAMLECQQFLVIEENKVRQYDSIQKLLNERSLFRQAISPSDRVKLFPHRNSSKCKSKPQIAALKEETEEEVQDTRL

The experiment has as its target human wild type-CFTR (Homo sapiens, UniProt P13569). The experiment in a line: Cell-based YFP assay. Further details: expressed in transfected cells; host or cells: CHO-K1 (Chinese hamster ovary). To be noted: CHO-K1 cells expressing human wild type-CFTR and YFP-H148Q/I152L; forskolin 20 μM = 100% activity; read-out: Cell-based YFP Assay (EC50) Concentration Range. Summed up:
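I⁻-driven YFP fluorescence quenching at 37 °C: 2 s baseline, addition of 140 mM iodide solution, then 14 s of readings at 0.4 s intervals. Cells were CHO-K1 expressing human wild-type CFTR plus YFP-H148Q/I152L. EC50 derived from averaged triplicates.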
`COc1ccc(-c2ccnc3cc(C(=O)Nc4ccc(C(=O)NCCN5CCCCC5)cc4)nn23)cc1OC` [Compound 119, 7-(3,4-dimethoxyphenyl)-N-(4-((2-(piperidin-1-yl)ethyl)carbamoyl)phenyl) pyrazolo[1,5-a]pyrimidine-2-carboxamide]: the EC50 lay in the range of 200 to 2000 nM.
The result for `COc1ccc(-c2ccnc3cc(C(=O)N4CCN(C(=O)COC(C)=O)CC4)nn23)cc1OC` [Compound 83, 2-(4-(7-(3,4-dimethoxyphenyl)pyrazolo[1,5-a]pyrimidine-2-carbonyl)piperazin-1-yl)-2-oxoethyl acetate] reads at least 2000 nM; that for `COc1ccc(-c2ccnc3cc(C(=O)NN4CCN(C)CC4)nn23)cc1OC` [Compound 68, 7-(3,4-dimethoxyphenyl)-N-(4-methylpiperazin-1-yl) pyrazolo[1,5-a]pyrimidine-2-carboxamide], at least 2000 nM; that for `COc1ccc(-c2ccnc3cc(C(=O)N4CC(C)N(C(=O)c5ccccc5)C(C)C4)nn23)cc1OC` (stereo not drawn) [Compound 348, (4-benzoyl-3,5-dimethylpiperazin-1-yl) (7-(3,4-dimethoxyphenyl)pyrazolo [1,5-a]pyrimidine-2-yl)methanone], 200 to 2000 nM.
As to `COC(=O)[C@@H](C)NC(=O)c1ccc(NC(=O)c2cc3nccc(-c4ccc(OC)c(OC)c4)n3n2)cc1` [Compound 64, methyl (4-(7-(3,4-dimethoxyphenyl)pyrazolo[1,5-a]pyrimidine-2-carboxamido)benzoyl)-D-alaninate], the EC50 is under 200 nM.
Next, `COc1ccc(-c2ccnc3cc(C(=O)Nc4ccc(F)cc4)nn23)cc1OC` [Compound 267, 7-(3,4-dimethoxyphenyl)-N-(4-fluorophenyl)pyrazolo[1,5-a]pyrimidine-2-carboxamide]: under 200 nM; `COc1ccc(-c2ccnc3cc(C(=O)NCC(=O)O)nn23)cc1OC` [Compound 22, (7-(3,4-dimethoxyphenyl)pyrazolo[1,5-a]pyrimidine-2-carbonyl) glycine]: at least 2000 nM.
Next, `COc1ccc(-c2ccnc3cc(C(=O)Nc4ccc(C(=O)N[C@@H](CCSC)C(=O)O)cc4)nn23)cc1OC` [Compound 87, (4-(7-(3,4-dimethoxyphenyl)pyrazolo[1,5-a]pyrimidine-2-carboxamido)benzoyl)-L-methionine]: at least 2000 nM.
Turning to `CCC[C@H]1CN(C(=O)c2cc3nccc(-c4ccc(OC)c(OC)c4)n3n2)CCN1` [Compound 373, (S)-(7-(3,4-dimethoxyphenyl)pyrazolo[1,5-a]pyrimidin-2-yl)(3-propylpiperazin-1-yl)methanone], the EC50 lay in the range of 200 to 2000 nM.
The result for `CCOc1ccc(NC(=O)c2cc3nccc(-c4ccc(N(C)C)cc4)n3n2)cc1` [Compound 324, 7-(4-(dimethylamino)phenyl)-N-(4-ethoxyphenyl)pyrazolo [1,5-a]pyrimidine-2-carboxamide] reads at least 2000 nM.
The result for `COc1ccc(-c2ccnc3cc(C(=O)Nc4ccc(N5CCOCC5)cc4F)nn23)cc1OC` [Compound 311, 7-(3,4-dimethoxyphenyl)-N-(2-fluoro-4-morpholinophenyl) pyrazolo[1,5-a]pyrimidine-2-carboxamide] reads under 200 nM; that for `COC(=O)c1ccc(NC(=O)c2cc3nccc(-c4ccc(OC)c(OC)c4)n3n2)c(Cl)c1` [Compound 104, methyl 3-chloro-4-(7-(3,4-dimethoxyphenyl)pyrazolo [1,5-a]pyrimidine-2-carboxamido)benzoate], at least 2000 nM.
Next, `COc1ccc(-c2ccnc3cc(C(=O)N4CCc5cc(C(=O)N6CCOCC6)ccc54)nn23)cc1OC` [Compound 251, (7-(3,4-dimethoxyphenyl)pyrazolo[1,5-a]pyrimidin-2-yl)(5-(morpholine-4-carbonyl)indolin-1-yl) methanone]: 200 to 2000 nM; `COc1ccc(-c2ccnc3cc(C(=O)N4C[C@H](C)NC[C@H]4C)nn23)cc1OC` [Compound 360, (7-(3,4-dimethoxyphenyl)pyrazolo[1,5-a]pyrimidin-2-yl) ((2R,5S)-2,5-dimethylpiperazin-1-yl)methanone]: 200 to 2000 nM.
Regarding `COc1ccc(-c2ccnc3cc(C(=O)N[C@H]4CC[C@H](C(=O)NCCN5CCOCC5)CC4)nn23)cc1OC` [Compound 202, 7-(3,4-dimethoxyphenyl)-N-((1r,4r)-4-((2-morpholinoethyl)carbamoyl)cyclohexyl)pyrazolo [1,5-a]pyrimidine-2-carboxamide], the EC50 is at least 2000 nM.
On to `COc1ccc(-c2ccnc3cc(C(=O)Nc4ccc(C(=O)OCCCN5CCCC5)cc4)nn23)cc1OC` [Compound 226, 3-(pyrrolidin-1-yl)propyl 4-(7-(3,4-dimethoxyphenyl)pyrazolo [1,5-a]pyrimidine-2-carboxamido)benzoate], for which the EC50 is at least 2000 nM.
The result for `COc1ccc(-c2ccnc3cc(C(=O)N4CCN[C@@H](C(C)C)C4)nn23)cc1OC` [Compound 372, (S)-(7-(3,4-dimethoxyphenyl)pyrazolo[1,5-a]pyrimidin-2-yl)(3-isopropylpiperazin-1-yl)methanone] reads 200 to 2000 nM; that for `COc1ccc(-c2ccnc3cc(C(=O)N4CCc5cc(C(=O)O)ccc54)nn23)cc1OC` [Compound 231, 1-(7-(3,4-dimethoxyphenyl)pyrazolo[1,5-a]pyrimidine-2-carbonyl) indoline-5-carboxylic acid], at least 2000 nM.
Next, `CCOC(=O)[C@H]1CC[C@H](NC(=O)c2cc3nccc(-c4ccc(OC)c(OC)c4)n3n2)CC1` [Compound 330, ethyl (1R,4R)-4-(7-(3,4-dimethoxyphenyl)pyrazolo [1,5-a]pyrimidine-2-carboxamido)cyclohexane-1-carboxylate]: 200 to 2000 nM.
Next, `COc1ccc(-c2ccnc3cc(C(=O)NC45CC(C(=O)N6CCNCC6)(C4)C5)nn23)cc1OC` [Compound 98, 7-(3,4-dimethoxyphenyl)-N-(3-(piperazine-1-carbonyl)bicyclo [1.1.1]pentan-1-yl)pyrazolo[1,5-a] pyrimidine-2-carboxamide]: at least 2000 nM.
As to `COc1ccc(-c2ccnc3cc(C(=O)N4CCc5ccc(C(=O)N6CCOCC6)cc54)nn23)cc1OC` [Compound 253, (7-(3,4-dimethoxyphenyl)pyrazolo[1,5-a]pyrimidin-2-yl)(6-(morpholine-4-carbonyl)indolin-1-yl) methanone], the EC50 lay in the range of 200 to 2000 nM.
The result for `COc1ccc(-c2ccnc3cc(C(=O)Nc4ccc(C(=O)N[C@@H](C)C(=O)O)cc4)nn23)cc1OC` [Compound 44, (4-(7-(3,4-dimethoxyphenyl)pyrazolo[1,5-a]pyrimidine-2-carboxamido)benzoyl)-L-alanine] reads 200 to 2000 nM; that for `COc1ccc(-c2ccnc3cc(C(=O)N4CCOCC4)nn23)cc1OC` [Compound 61, (7-(3,4-dimethoxyphenyl)pyrazolo[1,5-a]pyrimidine-2-yl) (morpholino)methanone], at least 2000 nM.
Next, `COc1ccc(-c2ccnc3cc(C(=O)Nc4ccc(C(=O)OCCN5CCCC5)cc4)nn23)cc1OC` [Compound 225, 2-(pyrrolidin-1-yl)ethyl 4-(7-(3,4-dimethoxyphenyl)pyrazolo [1,5-a]pyrimidine-2-carboxamido)benzoate]: at least 2000 nM; `COC(=O)c1ccc(NC(=O)c2cc3nccc(-c4ccccc4)n3n2)cc1` [Compound 305, methyl 4-(7-phenylpyrazolo[1,5-a]pyrimidine-2-carboxamido)benzoate]: at least 2000 nM; `CCOC(=O)C1(NC(=O)c2cc3nccc(-c4ccc(OC)c(OC)c4)n3n2)CC1` [Compound 26, ethyl 1-(7-(3,4-dimethoxyphenyl)pyrazolo [1,5-a]pyrimidine-2-carboxamido) cyclopropane-1-carboxylate]: 200 to 2000 nM.
The result for `COc1ccc(-c2ccnc3cc(C(=O)N4CCN(C(C)C)CC4)nn23)cc1OC` [Compound 179, (7-(3,4-dimethoxyphenyl)pyrazolo[1,5-a]pyrimidin-2-yl)(4-isopropylpiperazin-1-yl)methanone] reads at least 2000 nM; that for `COc1ccc(-c2ccnc3cc(C(=O)Nc4ccc(OC)c(F)c4F)nn23)cc1OC` [Compound 326, N-(2,3-difluoro-4-methoxyphenyl)-7-(3,4-dimethoxyphenyl)pyrazolo [1,5-a]pyrimidine-2-carboxamide], 200 to 2000 nM; that for `COc1ccc(-c2ccnc3cc(C(=O)N4CCN(C(=O)c5ccccc5)[C@@H](C(C)C)C4)nn23)cc1OC` [Compound 376, (S)-(4-benzoyl-3-isopropylpiperazin-1-yl)(7-(3,4-dimethoxyphenyl)pyrazolo[1,5-a]pyrimidin-2-yl)methanone], under 200 nM.
`COc1ccc(-c2ccnc3cc(C(=O)N4CCN(C(=O)OC(C)(C)C)C(C)(C)C4)nn23)cc1OC` [Compound 113, tert-butyl 4-(7-(3,4-dimethoxyphenyl)pyrazolo [1,5-a]pyrimidine-2-carbonyl)-2,2-dimethylpiperazine-1-carboxylate]: the EC50 is under 200 nM.
Next, `COc1ccc(-c2ccnc3cc(C(=O)N4CCN(C(=O)c5ccco5)[C@@H](C)C4)nn23)cc1OC` [Compound 353, (S)-(7-(3,4-dimethoxyphenyl)pyrazolo[1,5-a]pyrimidin-2-yl)(4-(furan-2-carbonyl)-3-methylpiperazin-1-yl)methanone]: under 200 nM; `COc1ccc(-c2ccnc3cc(C(=O)Nc4ccc(N5CCCCC5)cc4)nn23)cc1OC` [Compound 269, 7-(3,4-dimethoxyphenyl)-N-(4-(piperidin-1-yl)phenyl)pyrazolo [1,5-a]pyrimidine-2-carboxamide]: under 200 nM; `CCCCOC(=O)[C@H]1CC[C@H](NC(=O)c2cc3nccc(-c4ccc(OC)c(OC)c4)n3n2)CC1` [Compound 332, butyl (1r,4r)-4-(7-(3,4-dimethoxyphenyl)pyrazolo [1,5-a]pyrimidine-2-carboxamido)cyclohexane-1-carboxylate]: 200 to 2000 nM.

(Values after US20240199623A1 (ILDONG PHARMACEUTICAL CO., LTD., priority 2020, published 2024).)
